Measurements as given in US8143288B2, “Inhibitors of HCV replication” (priority 2005, dated 2012).
pEC50: −log10 of the molar value.

Tested on: HCV 1b-377-neo replicon cells
Assay: HCV replicon FRET assay
Type: cell-based
Details: Hepatitis C virus; HCV replicon; read-out: Activity (EC50)

Compound	pEC50
O=C(Nc1ccc(/C=C/c2ccc(NC(=O)[C@@H]3CCCN3C(=O)Cc3ccccc3)cc2)cc1)[C@@H]1CCCN1 [Example 252]	5.00 to 6.00
O=C(Cc1ccccc1)Nc1ccc(/C=C/c2ccc(NC(=O)[C@@H]3CCCN3C(=O)Cc3ccccc3)cc2)cc1 [Example 254]	6.00 to 7.00
O=C(Nc1ccc(/C=C/c2ccc(NC(=O)[C@@H]3CCCN3C(=O)Cc3ccccc3)cc2)cc1)[C@H]1CCCN1C(=O)Cc1ccccc1 [Example 255]	6.00 to 7.00
CC(=O)N[C@@H](C)C(=O)Nc1ccc(/C=C/c2ccc(NC(=O)[C@@H]3CCCN3C(=O)Cc3ccccc3)cc2)cc1 [Example 256]	6.00 to 7.00
O=C(Cc1ccccc1)NCC(=O)Nc1ccc(/C=C/c2ccc(NC(=O)[C@@H]3CCCN3C(=O)Cc3ccccc3)cc2)cc1 [Example 257]	6.00 to 7.00
CC(=O)N1CCC[C@H]1C(=O)Nc1ccc(/C=C/c2ccc(NC(=O)[C@@H]3CCCN3C(=O)Cc3ccccc3)cc2)cc1 [Example 258]	7.05 to 10.00
CC(C)(C)O[C@@H]1C[C@@H](C(=O)Nc2ccc(/C=C/c3ccc(NC(=O)C4CC4)cc3)cc2)N(C(=O)OCc2ccccc2)C1 [Example 259]	6.00 to 7.00
O=C(Nc1ccc(/C=C/c2ccc(NC(=O)[C@@H]3CCCN3C(=O)[C@H]3CCCO3)cc2)cc1)C1CC1 [Example 260]	6.00 to 7.00
O=C(CC1CC1)Nc1ccc(/C=C/c2ccc(NC(=O)[C@@H]3CCCN3C(=O)[C@H]3CCCO3)cc2)cc1 [Example 261]	5.00 to 6.00
O=C(Nc1ccc(/C=C/c2ccc(NC(=O)[C@@H]3CCCN3C(=O)[C@H]3CCCO3)cc2)cc1)C1CCC1 [Example 262]	6.00 to 7.00
O=C(Nc1ccc(/C=C/c2ccc(NC(=O)[C@@H]3CCCN3C(=O)[C@H]3CCCO3)cc2)cc1)[C@H]1CCCO1 [Example 263]	5.00 to 6.00
O=C(Nc1ccc(/C=C/c2ccc(NC(=O)[C@@H]3CCCN3C(=O)Cc3ccccc3)cc2)cc1)c1ccccc1 [Example 264]	7.05 to 10.00
CCc1ccccc1C(=O)Nc1ccc(/C=C/c2ccc(NC(=O)[C@@H]3CCCN3C(=O)Cc3ccccc3)cc2)cc1 [Example 265]	6.00 to 7.00
O=C(Nc1ccc(/C=C/c2ccc(NC(=O)[C@@H]3CCCN3C(=O)Cc3ccccc3)cc2)cc1)c1ccccc1Oc1ccccc1 [Example 266]	5.00 to 6.00
O=C(Nc1ccc(/C=C/c2ccc(NC(=O)[C@@H]3CCCN3C(=O)Cc3ccccc3)cc2)cc1)c1ccccc1NCc1ccccc1 [Example 267]	6.00 to 7.00
O=C(Nc1ccc(/C=C/c2ccc(NC(=O)[C@@H]3CCCN3C(=O)Cc3ccccc3)cc2)cc1)c1ccccc1OCc1ccccc1 [Example 268]	5.00 to 6.00
O=C(Cc1cccnc1)Nc1ccc(/C=C/c2ccc(NC(=O)[C@@H]3CCCN3C(=O)Cc3cccnc3)cc2)cc1 [Example 270]	7.05 to 10.00
C[C@H](NC(=O)Cc1ccccc1)C(=O)Nc1ccc(/C=C/c2ccc(NC(=O)[C@@H]3CCCN3C(=O)Cc3ccccc3)cc2)cc1 [Example 271]	7.05 to 10.00
CC(=O)N1C[C@H](O)C[C@H]1C(=O)Nc1ccc(/C=C/c2ccc(NC(=O)[C@@H]3CCCN3C(=O)Cc3ccccc3)cc2)cc1 [Example 272]	6.00 to 7.00
NCCCCC(N)C(=O)N1CCC[C@H]1C(=O)Nc1ccc(/C=C/c2ccc(NC(=O)[C@@H]3CCCN3C(=O)Cc3ccccc3)cc2)cc1 (some centres unmarked) [Example 273]	5.00 to 6.00
CC(C)(C)O[C@@H]1C[C@@H](C(=O)Nc2ccc(/C=C/c3ccc(NC(=O)[C@@H]4CCCN4C(=O)Cc4ccccc4)cc3)cc2)N(C(=O)OCc2ccccc2)C1 [Example 274]	7.05 to 10.00

Compound	pEC50
O=C(Nc1ccc(/C=C/c2ccc(NC(=O)[C@@H]3C[C@@H](O)CN3C(=O)OCc3ccccc3)cc2)cc1)[C@@H]1CCCN1C(=O)Cc1ccccc1 [Example 275]	7.05 to 10.00
O=C(Nc1ccc(/C=C/c2ccc(NC(=O)[C@@H]3CCCN3C(=O)Cc3ccccc3)c(F)c2)cc1F)[C@@H]1CCCN1C(=O)Cc1ccccc1 [Example 276]	7.05 to 10.00
Cc1cc(/C=C/c2ccc(NC(=O)[C@@H]3CCCN3C(=O)Cc3ccccc3)c(C)c2)ccc1NC(=O)[C@@H]1CCCN1C(=O)Cc1ccccc1 [Example 277]	7.05 to 10.00
CCc1cc(Br)ccc1S(=O)(=O)N1CCC[C@H]1C(=O)Nc1ccc(/C=C/c2ccc(NC(=O)[C@@H]3CCCN3S(=O)(=O)c3ccc(Br)cc3CC)cc2)cc1 [Example 278]	5.00 to 6.00
Cc1cc(C)c(S(=O)(=O)N2CCC[C@H]2C(=O)Nc2ccc(/C=C/c3ccc(NC(=O)[C@@H]4CCCN4S(=O)(=O)c4c(C)cc(C)cc4C)cc3)cc2)c(C)c1 [Example 279]	6.00 to 7.00
O=C(Nc1ccc(/C=C/c2ccc(NC(=O)[C@@H]3CCCN3S(=O)(=O)c3ccccc3OC(F)(F)F)cc2)cc1)[C@@H]1CCCN1S(=O)(=O)c1ccccc1OC(F)(F)F [Example 280]	5.00 to 6.00
Cc1ccccc1S(=O)(=O)N1CCC[C@H]1C(=O)Nc1ccc(/C=C/c2ccc(NC(=O)[C@@H]3CCCN3S(=O)(=O)c3ccccc3C)cc2)cc1 [Example 282]	5.00 to 6.00
O=C(Nc1ccc(/C=C/c2ccc(NC(=O)[C@@H]3CCCN3S(=O)(=O)Cc3cccc(C(F)(F)F)c3)cc2)cc1)[C@@H]1CCCN1S(=O)(=O)Cc1cccc(C(F)(F)F)c1 [Example 283]	5.00 to 6.00
CC(C)N(C(=O)N1CCCC1C(=O)Nc1ccc(/C=C/c2ccc(NC(=O)C3CCCN3C(=O)N(C(C)C)C(C)C)cc2)cc1)C(C)C (centres unmarked) [Example 284]	7.05 to 10.00
CC(C)NC(=O)N1CCC[C@H]1C(=O)Nc1ccc(/C=C/c2ccc(NC(=O)[C@@H]3CCCN3C(=O)NC(C)C)cc2)cc1 [Example 285]	6.00 to 7.00
O=C(Nc1ccc(/C=C/c2ccc(NC(=O)[C@@H]3CCCN3C(=O)N3CCCC3)cc2)cc1)[C@@H]1CCCN1C(=O)N1CCCC1 [Example 286]	6.00 to 7.00
O=C(Nc1ccc(/C=C/c2ccc(NC(=O)[C@@H]3CCCN3C(=O)N3CCOCC3)cc2)cc1)[C@@H]1CCCN1C(=O)N1CCOCC1 [Example 287]	7.05 to 10.00
CN(C)C(=O)N1CCC[C@H]1C(=O)Nc1ccc(/C=C/c2ccc(NC(=O)[C@@H]3CCCN3C(=O)N(C)C)cc2)cc1 [Example 288]	6.00 to 7.00
CCN(CC)C(=O)N1CCC[C@H]1C(=O)Nc1ccc(/C=C/c2ccc(NC(=O)[C@@H]3CCCN3C(=O)N(CC)CC)cc2)cc1 [Example 289]	7.05 to 10.00
CC(C)N(C(=O)N1CCC[C@H]1C(=O)Nc1ccc(/C=C/c2ccc(NC(=O)[C@@H]3CCCN3C(=O)N(C(C)C)C(C)C)cc2)cc1)C(C)C [Example 290]	7.05 to 10.00
O=C(Cc1ccccc1)C1C[C@H](O)C[C@H]1C(=O)Nc1ccc(/C=C/c2ccc(NC(=O)[C@@H]3C[C@@H](O)CN3C(=O)Cc3ccccc3)cc2)cc1 (some centres unmarked) [Example 291]	7.05 to 10.00
O=C(Nc1ccc(/C=C/c2ccc(NC(=O)[C@@H]3CCCN3C(=O)Cc3ccccc3)cc2)cc1)C1CC1 [Example 292]	6.00 to 7.00
O=C(Nc1ccc(/C=C/c2ccc(NC(=O)[C@@H]3CCCN3C(=O)OCc3ccccc3)cc2)cc1)C1CC1 [Example 293]	6.00 to 7.00
CC(C)(C)O[C@@H]1C[C@@H](C(=O)Nc2ccc(/C=C/c3ccc(NC(=O)[C@@H]4C[C@@H](OC(C)(C)C)CN4C(=O)OCc4ccccc4)cc3)cc2)N(C(=O)OCc2ccccc2)C1 [Example 294]	6.00 to 7.00
CC(C)(C)O[C@@H]1C[C@@H](C(=O)Nc2ccc(/C=C/c3ccc(NC(=O)[C@@H]4C[C@@H](OC(C)(C)C)CN4C(=O)Cc4ccccc4)cc3)cc2)N(C(=O)Cc2ccccc2)C1 [Example 295]	5.00 to 6.00
